Test results from ChEMBL document CHEMBL1128797, “Annohexocin, a novel mono-THF acetogenin with six hydroxyls, from Annona muricata (Annonaceae)” (Bioorg Med Chem Lett, 1995).
In brackets after ≈: the same amount, converted by molar mass.

Legend:
PC-3 = assay: Cytotoxic activity was tested against human PC-3 (prostate adenocarcinoma) cell line; format: functional; settings: read-out: ED50 (the source's name)
A549 = assay: Cytotoxic activity was tested against human […] cell line A-549 (lung carcinoma); format: functional; settings: read-out: ED50 (the source's name)
[1] = Compound was tested for brine shrimp lethality (BST); format: organism-based; settings: artemia, in vivo
HT-29 = assay: Cytotoxic activity was tested against human HT-29 (colon adenocarcinoma) cell line; format: functional; settings: read-out: ED50 (the source's name)
A498 = assay: Cytotoxic activity was tested against human A-498 (Kidney carcinoma) cell line; format: functional; settings: read-out: ED50 (the source's name)
MCF7 = assay: Cytotoxic activity was tested against human MCF-7 (breast carcinoma) cell line; format: functional; settings: read-out: ED50 (the source's name)
MIA PaCa-2 [2] = assay: Cytotoxic activity was tested against humanPAC-2 (pancreatic carcinoma) cell line; format: functional; settings: Homo sapiens, read-out: ED50 (the source's name)
MIA PaCa-2 [3] = assay: Cytotoxic activity was tested against human PAC-2 (pancreatici carcinoma) cell line; format: functional; settings: read-out: ED50 (the source's name)

| SMILES | EC50 (PC-3) | EC50 (A549) | LC50 [1] | EC50 (HT-29) | EC50 (A498) | EC50 (MCF7) | EC50 (MIA PaCa-2 [2]) | EC50 (MIA PaCa-2 [3]) |
| --- | --- | --- | --- | --- | --- | --- | --- | --- |
| CCCCCCCCCCCCC(O)C1CCC(C(O)CCC(O)CC(O)CC(O)CCCC(O)CC2=CC(C)OC2=O)O1 (stereo not drawn) | 0.0195 µg/mL (≈ 0.031 µM) | 0.34 µg/mL (≈ 0.541 µM) | 34.4 µg/mL (≈ 54.7 µM) | 0.78 µg/mL (≈ 1.24 µM) | 2.36 µg/mL (≈ 3.75 µM) | 2.26 µg/mL (≈ 3.59 µM) | 0.77 µg/mL (≈ 1.22 µM) | – |
| COc1cccc2c1C(=O)c1c(O)c3c(c(O)c1C2=O)C[C@@](O)(C(=O)CO)C[C@@H]3O[C@H]1C[C@H](N)[C@H](O)[C@H](C)O1 [DOXORUBICIN] | 0.33 µg/mL (≈ 0.607 µM) | 0.0346 µg/mL (≈ 0.0637 µM) | – | 0.0896 µg/mL (≈ 0.165 µM) | 0.0335 µg/mL (≈ 0.0616 µM) | 0.43 µg/mL (≈ 0.791 µM) | – | 0.031 µg/mL (≈ 0.057 µM) |
